From PubChem BioAssay (NCI)
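How tested: cells in 96-well plates exposed to compound for 48 hours at five concentrations. TGI: total growth inhibition.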

How the values were obtained:
Test in all cases: NCI-60 cell line screen, 48 h
786-0 renal = tested on: 786-0 renal
HCT-116 colon = tested on: HCT-116 colon
K-562 leukemia = tested on: K-562 leukemia
KM12 colon = tested on: KM12 colon
MDA-N = tested on: MDA-N
NCI-H226 lung = tested on: NCI-H226 lung
OVCAR-3 ovarian = tested on: OVCAR-3 ovarian
RPMI-8226 leukemia = tested on: RPMI-8226 leukemia
SF-539 CNS = tested on: SF-539 CNS
UACC-257 melanoma = tested on: UACC-257 melanoma

SMILES | TGI (786-0 renal) [µM] | TGI (HCT-116 colon) [µM] | TGI (K-562 leukemia) [µM] | TGI (KM12 colon) [µM] | TGI (MDA-N) [µM] | TGI (NCI-H226 lung) [µM] | TGI (OVCAR-3 ovarian) [µM] | TGI (RPMI-8226 leukemia) [µM] | TGI (SF-539 CNS) [µM] | TGI (UACC-257 melanoma) [µM]
C[C@]12CC[C@H](O)CC1=CC[C@@H]1[C@@H]2CC[C@]2(C)/C(=N/OCCN3CCCC3)CC[C@@H]12 | 33.6 | 28.6 | 21.6 | 26.9 | 34.3 | 30 | 31.1 | 38.4 | 28.1 | 27.7
C[n+]1c2ccccc2c(C(=O)Nc2ccc(S(=O)(=O)N=C(N)N)cc2)c2ccccc21 | > 100 | > 100 | > 100 | > 100 | > 100 | > 100 | > 100 | > 100 | > 100 | > 100
COc1ccc(OC)c2c1C1CCC(=O)N1CN2C(C)=O (stereo not given) | > 100 | > 100 | > 100 | > 100 | > 100 | > 100 | > 100 | > 100 | > 100 | > 100
Cc1c(NC2(C)C(=O)N(/N=C/c3ccccc3)N=C2c2ccccc2)n[nH]c1-c1ccccc1 (stereo not given) | > 100 | > 100 | > 100 | > 100 | > 100 | > 100 | > 100 | > 100 | > 100 | > 100
C/C(O)=C/c1nc2ccc([N+](=O)[O-])cc2nc1/C=C(/C)O | > 100 | > 100 | > 100 | > 100 | > 100 | > 100 | > 100 | 65.1 | > 100 | 72.7
COc1ccc2nc3cc(Cl)ccc3c(NCCNCCCNC(=O)c3cc(-c4ccccc4)nc4ccccc34)c2c1 | > 100 | > 100 | > 100 | > 100 | 97.5 | > 100 | > 100 | > 100 | > 100 | > 100
CC(C)CNC(=O)Cn1c(-c2ccccc2)cc2ccccc21 | > 100 | > 100 | > 100 | > 100 | > 100 | > 100 | > 100 | > 100 | > 100 | > 100
COc1cc(C2SCC(=O)N2c2ccc(Oc3ccc(Cl)cc3)c(Cl)c2)cc(OC)c1OC (stereo not given) | 33.9 | 35.5 | > 100 | 46 | 45.1 | 31.9 | 31.1 | > 100 | 54.2 | 33.3
O=C(CNc1ccc(Cl)cc1Cl)NC1C=Cc2ccc(S(=O)(=O)Nc3ccc(Cl)cc3Cl)cc2C1=O (stereo not given) | > 100 | > 100 | > 100 | > 100 | > 100 | > 100 | > 100 | > 100 | > 100 | > 100
COc1ccc(/C=C2\N=C(c3ccccc3)N(C3Nc4cc5c(cc4S3)NC(N3C(=O)/C(=C/c4ccc(OC)cc4)N=C3c3ccccc3)S5)C2=O)cc1 (stereo not given) | > 100 | > 100 | > 100 | > 100 | > 100 | > 100 | > 100 | 86.7 | 29.2 | > 100
CC(=O)N1CCN(C23OC4(N5CCN(C(C)=O)CC5)C5C6CC(C7C6C4C72)C53)CC1 (stereo not given) | > 100 | > 100 | > 100 | > 100 | > 100 | > 100 | > 100 | > 100 | > 100 | > 100
C=C(C)C1CC=C(C)C2(C1)OCC(C)(C)C(C)O2 (stereo not given) | 33 | 31.1 | 45.8 | 32.9 | 47.4 | 35.7 | 29.9 | 43.2 | 48 | 81.9
CSC1=NS(=O)(=O)c2cc(C(=O)NN(C)C(=O)c3cc4c(cc3Cl)SC(SC)=NS4(=O)=O)c(Cl)cc2S1 | > 10 | > 10 | > 10 | > 10 | > 10 | > 10 | > 10 | > 10 | > 10 | > 10
